Data reported in US20200206196A1, “Antiviral Drugs” (priority 2017, published 2020).
Residues, ends and D or L forms follow the SMILES beside them.

Key:
HeV [1] = type: cell-based, Hendra virus
NiV = type: cell-based, Nipah virus
RSV = type: cell-based, RSV (strain A2)
[2] = tested on: vesicular stomatitis virus (VSV); type: cell-based
[3] = tested on: influenza A virus (A/WSN/33); type: cell-based, Influenza A/WSN/33 (H1N1)
HeLa cells [4] = test: Alamar blue assay of metabolic activity; type: cell-based; details: HeLa cells treated for 26 h, vs vehicle or media
[5] = tested on: HeV-F and HeV-G mediated cell-cell fusion; type: cell-based, Hendra virus
HeV [6] = type: cell-based, Hendra virus; remark: listed apart in the source
HeV [7] = type: cell-based, Hendra virus; remark: listed apart in the source
HeLa cells [8] = test: Cell viability: relative cell numbers (DAPI nuclei count); details: 26 h post-treatment, concentrations resulting in antiviral activity
HeV [9] = type: cell-based, Hendra virus; remark: listed apart in the source

Row | SMILES | HeV infection (HeV titres), dose response (HeV [1]) | reduction in HeV titers (HeV [1]) [%] | reduction in virus titres, HeV (HeV [1]) | reduction in virus titres, NiV (NiV) | reduction in virus titres, RSV (RSV) | reduction in virus titres, VSV [2] | reduction in virus titres, A/WSN/33 [3] | change in metabolic activity (Alamar blue) (HeLa cells [4]) | cell-cell fusion of target cells with HeV-F/HeV-G effector cells [5] | intracellular viral RNA levels (HeV [6]) | viral protein production (P protein and N protein) (HeV [7]) | impact on cell numbers (HeLa cells [8]) | inhibition of viral protein synthesis (virus antigen levels per well) (HeV [9]) | inhibition of virus-induced cell death (cell numbers per well) (HeV [9])
1 | CCCc1nc2c(C)cc(-c3nc4ccccc4n3C)cc2n1Cc1ccc(-c2ccccc2C(=O)O)cc1 [Telmisartan] | inhibited HeV infection in a dose-dependent manner | ~95 | significant reduction in virus titres | significant reduction in virus titres | significant reduction in virus titres | significant reduction in virus titres | not for A/WSN/33 | no significant change in metabolic activity | comparable to target cells treated with vehicle | significantly reduced intracellular viral RNA levels | almost completely abolished | mild impact on cell numbers |  | 
2 | CCOc1nc2cccc(C(=O)O)c2n1Cc1ccc(-c2ccccc2-c2nnn[nH]2)cc1 [Candesartan] | inhibited HeV infection in a dose-dependent manner |  |  |  |  |  |  |  |  |  |  |  |  | 
3 | CSCC[C@@H](C=O)NC(=O)[C@H](CC(C)C)NC(=O)[C@H](CC(C)C)NC(C)=O [calpain inhibitor II] (Ac-Leu-Leu-Met-aldehyde) |  |  |  |  |  |  |  |  |  |  |  |  | more effective than E64D | more effective than E64D
